Experimental findings from article PMC9516332 (Frontiers in Oncology, 2022) are described below.

Holding throughout (experiment): Kinase panel profiling at 1 µmol/L (MSA or IMAP), percentage inhibition
What all share (type): biochemical

For assay [1], the target named is panel of 255 wild-type kinases (Homo sapiens, UniProt Q14289). The conditions noted are these: read-out: %-inhibition at 1 µmol/L, PYK2.
Assay [2] deals with panel of 255 wild-type kinases (Homo sapiens, UniProt Q15303). Particulars: read-out: %-inhibition at 1 µmol/L, HER4.
Assay [3] concerns the target panel of 255 wild-type kinases (Homo sapiens, UniProt Q9H4A3). Particulars: read-out: %-inhibition at 1 µmol/L, WNK1.
In assay [4] the target is T1, panel of 255 wild-type kinases (Homo sapiens, UniProt Q9BZL6).
T1 sequence (Q9BZL6 1-878): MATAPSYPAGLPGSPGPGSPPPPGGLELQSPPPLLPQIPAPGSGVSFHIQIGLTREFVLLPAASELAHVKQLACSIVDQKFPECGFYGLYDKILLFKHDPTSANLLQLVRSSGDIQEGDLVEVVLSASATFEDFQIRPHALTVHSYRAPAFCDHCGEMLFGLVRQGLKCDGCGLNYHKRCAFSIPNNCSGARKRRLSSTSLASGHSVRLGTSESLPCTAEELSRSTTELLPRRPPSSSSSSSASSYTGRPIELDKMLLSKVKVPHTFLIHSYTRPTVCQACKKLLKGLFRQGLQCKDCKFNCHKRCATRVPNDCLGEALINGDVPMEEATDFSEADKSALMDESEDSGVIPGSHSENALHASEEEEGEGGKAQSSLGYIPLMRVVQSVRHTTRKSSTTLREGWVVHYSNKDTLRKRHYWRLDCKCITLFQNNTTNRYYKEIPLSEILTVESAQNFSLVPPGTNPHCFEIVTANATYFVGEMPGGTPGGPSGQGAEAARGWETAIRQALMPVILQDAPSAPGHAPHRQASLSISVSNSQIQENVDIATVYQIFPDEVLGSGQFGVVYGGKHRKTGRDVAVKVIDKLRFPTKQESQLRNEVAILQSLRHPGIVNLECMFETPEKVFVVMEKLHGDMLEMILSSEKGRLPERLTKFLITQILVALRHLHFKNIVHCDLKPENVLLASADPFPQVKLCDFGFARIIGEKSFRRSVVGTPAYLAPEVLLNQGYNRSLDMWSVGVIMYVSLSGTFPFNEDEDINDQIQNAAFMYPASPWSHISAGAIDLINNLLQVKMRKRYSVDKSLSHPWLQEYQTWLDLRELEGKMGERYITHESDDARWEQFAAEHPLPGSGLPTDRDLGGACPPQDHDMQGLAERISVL
The conditions noted are these: read-out: %-inhibition at 1 µmol/L, PKD2.

Assay [5] addresses T2, panel of 255 wild-type kinases (Homo sapiens, UniProt Q9NZJ5).
T2 sequence (Q9NZJ5 30-1116): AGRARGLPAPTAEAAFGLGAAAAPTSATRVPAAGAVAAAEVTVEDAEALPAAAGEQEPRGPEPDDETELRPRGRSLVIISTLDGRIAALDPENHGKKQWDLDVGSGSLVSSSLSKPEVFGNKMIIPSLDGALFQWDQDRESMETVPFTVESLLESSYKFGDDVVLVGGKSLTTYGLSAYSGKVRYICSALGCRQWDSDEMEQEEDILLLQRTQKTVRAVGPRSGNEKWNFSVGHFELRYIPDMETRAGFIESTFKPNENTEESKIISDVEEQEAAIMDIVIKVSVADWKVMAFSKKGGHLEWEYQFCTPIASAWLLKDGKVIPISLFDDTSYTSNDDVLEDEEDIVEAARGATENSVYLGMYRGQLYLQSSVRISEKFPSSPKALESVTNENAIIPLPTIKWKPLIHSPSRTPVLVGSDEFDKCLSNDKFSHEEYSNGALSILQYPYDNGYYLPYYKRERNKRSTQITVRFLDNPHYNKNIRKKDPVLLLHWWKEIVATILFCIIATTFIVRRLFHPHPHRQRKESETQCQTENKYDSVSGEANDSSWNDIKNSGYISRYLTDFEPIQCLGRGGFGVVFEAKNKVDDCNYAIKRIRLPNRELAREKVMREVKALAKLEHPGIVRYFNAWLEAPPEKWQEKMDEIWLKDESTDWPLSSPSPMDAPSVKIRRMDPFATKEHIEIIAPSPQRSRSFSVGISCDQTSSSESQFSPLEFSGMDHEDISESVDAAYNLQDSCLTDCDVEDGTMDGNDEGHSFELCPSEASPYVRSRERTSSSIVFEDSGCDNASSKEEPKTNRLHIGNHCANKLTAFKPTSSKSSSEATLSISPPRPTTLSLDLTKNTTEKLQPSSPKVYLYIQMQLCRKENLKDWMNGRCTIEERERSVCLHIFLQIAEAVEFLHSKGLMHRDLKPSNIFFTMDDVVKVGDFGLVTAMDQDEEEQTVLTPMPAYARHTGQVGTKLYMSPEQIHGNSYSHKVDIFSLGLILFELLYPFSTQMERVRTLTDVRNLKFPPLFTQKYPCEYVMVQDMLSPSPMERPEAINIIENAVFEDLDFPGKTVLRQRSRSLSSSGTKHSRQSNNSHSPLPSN
Particulars: read-out: %-inhibition at 1 µmol/L, PEK.

[6] abbreviates: kinase PYK2, 1 µmol/L single concentration.
Setting [7] is: kinase HER4, 1 µmol/L single concentration.
[8] abbreviates: kinase WNK1, 1 µmol/L single concentration.
Setting [9] is: kinase PKD2, 1 µmol/L single concentration.
Where [10] appears, read: kinase PEK, 1 µmol/L single concentration.

Each structure is given as a SMILES string. Like-named read-outs stand apart in the source and are kept apart here.

As for `Cc1nc(NC(=O)N2CCC[C@H]2C(N)=O)sc1-c1ccnc(C(C)(C)C(F)(F)F)c1` [alpelisib], the inhibition at 1 µM in assay [1] (setting [6]) was -4%; in assay [2] (setting [7]), 2%; in assay [3] (setting [8]) it was -4%; in assay [4] (setting [9]), -20%; in assay [5] (setting [10]), 10%.

Take `Cn1cc(-c2cc3c(N4CCN(c5ncc([C@@](C)(N)c6ccc(F)cc6)cn5)CC4)ncnn3c2)cn1` [avapritinib]: the inhibition at 1 µM in assay [1] (setting [6]) was 1%; in assay [2] (setting [7]) it was 25%; in assay [3] (setting [8]), -5.32%; in assay [4] (setting [9]) it was -0.865%; in assay [5] (setting [10]), 1.51%.

For the molecule `Cn1cnc2c(F)c(Nc3ccc(Br)cc3F)c(C(=O)NOCCO)cc21` [binimetinib], the inhibition at 1 µM is 2.41% in assay [1] (setting [6]); 11% in assay [2] (setting [7]); -3.5% in assay [3] (setting [8]); -7% in assay [4] (setting [9]); 4.67% in assay [5] (setting [10]).

Turning to `CNC(=O)c1ccc(-c2cnc3ncc(Cc4ccc5ncccc5c4)n3n2)cc1F` [capmatinib], the inhibition at 1 µM in assay [1] is -2.25%; in assay [2], 21%; in assay [3], -5%; in assay [4], -7.47%; in assay [5], 4.25%.

Turning to `COc1cc2ncnc(Nc3ccc(F)c(Cl)c3)c2cc1NC(=O)/C=C/CN1CCCCC1` [dacomitinib], the inhibition at 1 µM was 1.4% in assay [1] (setting [6]); 103% in assay [2] (setting [7]); -4% in assay [3] (setting [8]); 10% in assay [4] (setting [9]); 2.82% in assay [5] (setting [10]).

Consider `C[C@H](Nc1ncnc2nc[nH]c12)c1cc2cccc(Cl)c2c(=O)n1-c1ccccc1` [duvelisib], for which the inhibition at 1 µM was -3.37% in assay [1] (setting [6]); -0.702% in assay [2] (setting [7]); -3% in assay [3] (setting [8]); -12% in assay [4] (setting [9]); 5.65% in assay [5] (setting [10]).

As for `COC(=O)N[C@@H](C)CNc1nccc(-c2cn(C(C)C)nc2-c2cc(Cl)cc(NS(C)(=O)=O)c2F)n1` [encorafenib], the inhibition at 1 µM in assay [1] (setting [6]) was 4%; in assay [2] (setting [7]), 14%; in assay [3] (setting [8]), 0.0799%; in assay [4] (setting [9]) it was 2.49%; in assay [5] (setting [10]), 9%.

As to `CN1CCN(c2ccc(C(=O)Nc3n[nH]c4ccc(Cc5cc(F)cc(F)c5)cc34)c(NC3CCOCC3)c2)CC1` [entrectinib], the inhibition at 1 µM in assay [1] (setting [6]) was 96%; in assay [2] (setting [7]), 32%; in assay [3] (setting [8]), -2.18%; in assay [4] (setting [9]) it was -24%; in assay [5] (setting [10]), 0.561%.

Take `CCc1nc(C(N)=O)c(Nc2ccc(N3CCC(N4CCN(C)CC4)CC3)c(OC)c2)nc1NC1CCOCC1` [gilteritinib]: the inhibition at 1 µM in assay [1] (setting [6]) is 93%; in assay [2] (setting [7]) it was 83%; in assay [3] (setting [8]) it was -3%; in assay [4] (setting [9]) it was 56%.

`CCN1CCN(c2ccc(Nc3cc(N(C)C(=O)Nc4c(Cl)c(OC)cc(OC)c4Cl)ncn3)cc2)CC1` [infigratinib]: the inhibition at 1 µM is 13% in assay [1] (setting [6]); 26% in assay [2] (setting [7]); -4.6% in assay [3] (setting [8]); -4.21% in assay [4] (setting [9]); 49% in assay [5] (setting [10]).

`O=C(Nc1cnn2ccc(N3CCC[C@@H]3c3cc(F)ccc3F)nc12)N1CC[C@H](O)C1` [larotrectinib]: the inhibition at 1 µM in assay [1] (setting [6]) is 5.34%; in assay [2] (setting [7]), 10%; in assay [3] (setting [8]) it was -4.49%; in assay [4] (setting [9]), -6%; in assay [5] (setting [10]) it was 4%.

Take `C[C@H]1Oc2cc(cnc2N)-c2c(nn(C)c2C#N)CN(C)C(=O)c2ccc(F)cc21` [lorlatinib]: the inhibition at 1 µM was 11% in assay [2] (setting [7]), 0.826% in assay [3] (setting [8]), -11% in assay [4] (setting [9]) and -1.65% in assay [5] (setting [10]).
